Laboratory results published in patent US9573960B2, “Glioblastoma inhibiting compounds and their use” (Life & Brain GmbH, priority 2011, dated 2017).
pIC50: −log10 of the molar value. Where a name gives a salt, the structure may show the parent alone. Read-outs that look alike come from different tables or passages of the source.

Assays:
glioma cell line U87 = experiment: Drug screening, AlamarBlue assay in U87; format: cell-based; conditions: for inhibition at 1 µM: Glioma cell, 144 h, read-out: reduction of the relative metabolic activity of U87
Procedure: (§1) Experiments were performed in triplicates for each sample.
For comparison with our four patient-specific primary GBM cell specimens, we used the commercially available glioma cell line U87 that is frequently investigated in drug discovery settings (FIG. 2).

[1] = tested on: #155 cells (primary cells from a patient with pharmacoresistent epilepsy); experiment: Drug screening, AlamarBlue assay in #155 control cells; format: cell-based, human; conditions: 1 μM
Procedure: as §1
As an alternative control, primary cells were evaluated, which were obtained from a patient suffering from pharmacoresistent epilepsy (patient #155).

[2] = tested on: four patient-specific primary GBM cultures; conditions: for effect on the primary GBM cells' metabolic activity: 1 μM
Procedure: Before screening, cell number was titrated for each cell line separately to ensure that cell proliferation remained in a linear-exponential phase throughout the experiment. 24 hours after seeding 2−3×10^3 cells/well into laminin/poly-L-ornithine coated 96-well plates, primary cultures were treated with 2 nM, 1 μM or 10 μM of each compound (stock solution 10 mM in DMSO). As a reference we treated cells with 50 μM and 500 μM temozolomide (TMZ, SigmaAldrich, Taufkirchen, Germany; stock solution of 100 mM in DMSO). Control cells were treated with 0.5-0.01% DMSO. Six days after application, cell viability was determined using the AlamarBlue® assay according to the manufacturers recommendations (Invitrogen, Karlsruhe, Germany). Fluorescence was measured using an Infinite200 microplate reader (Tecan, Crailsheim, Germany) at Xex=540 nm and Xem=590 nm. Experiments were performed in triplicates for each sample.
To identify cytotoxic and cytostatic compounds, we conducted in vitro drug-screening assays in four different patient-specific primary GBM cultures (see Table 1 for basic characterization of research specimens).
The compound library was screened at three different concentrations (10 μM, 1 μM, 2 nM). The relative metabolic activity was determined after a 5-day incubation with compounds. […] For reference, we applied 50 μM (reported plasma peak concentration) and 500 μM of temozolomide (TMZ, as described in Beier et al., 2008), the current standard chemotherapeutic GBM drug to our cells. […] However, “hits” in the setting of a primary screening were defined as a reduction of the relative metabolic activity under the level of 50% of DMSO-treated control cells.

[3] = in vivo; cited from earlier work
[4] = tested on: patient-specific GBM primary cultures; experiment: AnnexinV-based FACS analysis of apoptosis; format: cell-based, human; conditions: 1 μM, 5-day exposure, in 7 out of 8 cultures
Procedure: […] 1×10^5 cells were sedimented by centrifugation, resuspended in […] AnnexinV buffer (BD Bioscience, Heidelberg, Germany) and incubated with 5 μl Annexin V-FITC (BD Bioscience, Heidelberg, Germany) for 1 h at RT. To distinguish between living and dead cells, labeling with 1.2 μg/ml bisbenzimide H33258 (Invitrogen, Karlsruhe, Germany) was used. Expression was determined using standard conditions in a LSRII equipped with FACSDiva Software (BD Bioscience, Heidelberg, Germany). For each measurement, 20.000 cells were counted. Annexin V positive cells, Annexin V and H33258 positive cells and H33258 positive cells were termed avital cells.
These effects could be validated as compound-specific, based on analysis of Pristimerin purchased from an independent supplier that yielded similar results (Sigma; FIG. 1b). For further experimentation, pristimerin was applied at 1 μM concentrations (FIG. 1c). […] In 7 out of 8 investigated patient-specific GBM primary cultures more than 50% of all cells could be classified as avital (FIG. 6; ***p<0.001, compared to their respective DMSO-treated control cells).

[5] = tested on: clonogenic, neurosphere-forming GBM cells; experiment: Neurosphere assay after pristimerin; format: cell-based, human; conditions: single dose 1 μM, cases 046, 078, 106
Procedure: Based on previous investigations (Scheffler et al., 2005), a single cell suspension of 1×10^4 cells/cm^2 was diluted in 1% methylcellulose-containing PROL media provided with 20 ng/ml EGF/bFGF, and inoculated into nonadhesive culture dishes. 10 ng/ml EGF/bFGF was then added every other day. Neurospheres were quantified at 21 days in culture, triturated to a single cell suspension, which was used for plating under identical conditions and analysis of the formation of secondary or higher degree neurospheres. For analysis of multipotency, a representative fraction of 3° neurospheres were used. Neurospheres were plated onto laminin/poly-L-ornithine coated glass coverslips and, after attachment, provided with PROL media devoid of mitogens to allow differentiation for 2-3 weeks in culture before PFA-fixation and immunofluorescence analysis.
Furthermore, a single dose of pristimerin decreased the frequency of clonogenic, i.e. neurosphere-forming cells by 30-60% (FIG. 9a,b). Depletion of clonogenic cells was never observed at concentrations of […]. Clonogenic cells were always able to selfrenew and form higher-degree neurospheres that gave rise to immature neurons and astrocytes (FIG. 9c). These findings indicate that Pristimerin is not selectively inhibiting GBM cancer stem cells. […]

[6] = tested on: GBM primary cells (035, 046); experiment: Long-term monitoring of cell confluency (CellaVista); format: cell-based, human; conditions: single dose 1 μM, post compound application
Procedure: FIG. 8: Long-term monitoring of cellular confluency post application of 1 μM pristimerin (dotted lines) in two independent GBM primary cell culture experiments (035=triangle; 046=squares) (solid line, 0.1% DMSO). Live cell-imaging was performed using the CellaVista system according to its specifications (Roche Diagnostics).
We used the CellaVistasystem (Roche Diagnostics, Mannheim) for monitoring of cell confluency as a surrogate analysis tool.

[7] = tested on: GBM primary cells under non-adherent conditions (neurospheres); experiment: Pristimerin in 3D culture, non-adherent growth conditions (ICM50); format: cell-based; conditions: Homo sapiens, single dose, specimens 046, 078, 106
Text: FIG. 11: Inhibition of GBM primary cells under adherent (solid line) vs. non-adherent (dotted line) conditions. Results represent the mean of triplicate-well-analysis for 3 different specimens at each concentration (046, 078, 106)
The GBM-inhibitory activity of Pristimerin was confirmed in 3D culture systems, i.e. non-adherent growth conditions (FIG. 11). Under anchorage-withdrawal, GBM cells form neurospheres, and investigation of their metabolic response patterns indicated a more resistant phenotype.

[8] = tested on: patient-specific GBM primary cells; experiment: Pharmacodynamic analysis of pristimerin, AlamarBlue (ICM50); format: cell-based; conditions: Homo sapiens, 120 h
Procedure: For pharmacodynamic analyses of pristimerin and niclosamide 5×10^4 cells were plated in 12 well plates 24 h before they were treated with concentrations indicated. 5 days after the treatment, cell viability was monitored by the AlamarBlue® assay. Experiments were performed in triplicates. The ICM50 is the concentration of agent that reduced the metabolic activity by 50% under the experimental conditions.
Pristimerin induces apoptosis in GBM primary cells. […] Because the peak plasma concentration of pristimerin is not yet known, we investigated a range of concentrations between 70 nM and 10 μM (FIG. 5). Under these conditions, pristimerin is potently cytotoxic at median ICM50's (half maximal inhibitory concentration of metabolic activity) of approximately 500 nM (FIG. 5a,b,d)

GBM primary cells = experiment: Growth kinetic analysis (proliferation kinetics); format: cell-based, human; conditions: single dose 1 μM
Procedure: Five days after treatment in 6 cm dishes, 47,000 vital cells were plated into 3.5 cm laminin/poly-L-ornithine coated plastic dishes. 20 ng/ml EGF/bFGF were provided upon plating, and 10 ng/ml EGF/bFGF were added every other day thereafter. Four-to-six days later, adherent cells were trypsinized, harvested, counted, and plated at a density of 4.7×10^4 cells. This procedure was repeated for 4-5 passages. Mean values are presented with standard error.
Cells surviving the application of Pristimerin expand linearly on a logarithmic scale. There is an initial delay of cell growth lasting for a maximum of 10 days. However, thereafter, every patient-specific GBM primary culture we investigated thus far continued to proliferate as well as their respective DMSO-control (FIG. 7).

Nc1nc2nc[nH]c2c(=S)[nH]1 [Thioguanine]
inhibition at 1 µM (glioma cell line U87; 1 μM): ≤ 50% | effect on the metabolic activity of the #155 cells [1]: very little effect

CC(=O)O[C@H]1C(=O)[C@@]2(C)[C@H]([C@H](OC(=O)c3ccccc3)[C@]3(O)C[C@H](OC(=O)[C@H](O)[C@@H](NC(=O)c4ccccc4)c4ccccc4)C(C)=C1C3(C)C)[C@]1(OC(C)=O)CO[C@@H]1C[C@@H]2O [paclitaxel]
effect on the metabolic activity of the #155 cells [1]: very little effect

O=C1C(Cl)=C(Cl)C(=O)c2c(O)ccc(O)c21 [2,3-dichloro-5,8-dihydroxynapthoquinone]
effect on the primary GBM cells' metabolic activity [2]: no significant effect | effect on the metabolic activity of the #155 cells [1]: diminished the metabolic activity of the #155 cells significantly

COc1cc(O)c2c(c1)C(=O)c1cc(C)cc(O)c1C2=O [Physicion]
influence on the U87's metabolic activity (glioma cell line U87; 1 μM): significant influence | effect on the primary GBM cells' metabolic activity [2]: without affecting

CCCCCCCCCCCCCC(=O)O[C@@H]1[C@@H](C)[C@@]2(O)[C@@H](C=C(CO)C[C@]3(O)C(=O)C(C)=C[C@@H]23)[C@@H]2C(C)(C)[C@]12OC(C)=O [phorbol myristate acetate]
effect on the primary GBM cells' metabolic activity [2]: no significant effect | effect on the metabolic activity of the #155 cells [1]: diminished the metabolic activity of the #155 cells significantly

COc1cc([C@@H]2c3cc4c(cc3[C@@H](O[C@@H]3O[C@@H]5CO[C@@H](c6cccs6)O[C@H]5[C@H](O)[C@H]3O)[C@H]3COC(=O)[C@H]23)OCO4)cc(OC)c1O [Teniposide]
inhibition at 1 µM (glioma cell line U87; 1 μM): ≤ 50% | effect on the metabolic activity of the #155 cells [1]: very little effect

CC[C@@]1(O)C(=O)OCc2c1cc1n(c2=O)Cc2cc3cc(O)ccc3nc2-1 [10-Hydroxycamptothecin]
effect on the metabolic activity of the #155 cells [1]: very little effect

CN(Cc1cnc2nc(N)nc(N)c2n1)c1ccc(C(=O)N[C@@H](CCC(=O)O)C(=O)O)cc1 [Methotrexate]
inhibition at 1 µM (glioma cell line U87; 1 μM): ≤ 50% | effect on the metabolic activity of the #155 cells [1]: very little effect

CC[C@@]1(O)C(=O)OCc2c1cc1n(c2=O)Cc2cc3ccccc3nc2-1 [camptothecin]
effect on the metabolic activity of the #155 cells [1]: very little effect

O=c1[nH]c(=O)n([C@H]2C[C@H](O)[C@@H](CO)O2)cc1F [Floxuridine]
inhibition at 1 µM (glioma cell line U87; 1 μM): ≤ 50% | effect on the metabolic activity of the #155 cells [1]: very little effect

C[C@@]12C(=O)OC(=O)[C@]1(C)[C@H]1CC[C@@H]2O1 [Cantharidin]
effect on the primary GBM cells' metabolic activity [2]: no significant effect | effect on the metabolic activity of the #155 cells [1]: diminished the metabolic activity of the #155 cells significantly

N=c1ccn2c(n1)O[C@H]1[C@H](O)[C@@H](CO)O[C@H]12 [Ancitabine hydrochloride]
inhibition at 1 µM (glioma cell line U87; 1 μM): ≤ 50%

C=C(C)[C@H]1Cc2c(ccc3c2O[C@@H]2COc4cc(OC)c(OC)cc4[C@@H]2C3=O)O1 [Rotenone]
inhibition at 1 µM (glioma cell line U87): ≤ 50% | effect on the metabolic activity of the #155 cells [1]: very little effect

COc1cc([C@@H]2c3cc4c(cc3[C@H](O)[C@H]3COC(=O)[C@@H]23)OCO4)cc(OC)c1OC [Picropodophyllotoxin]
inhibition at 1 µM (glioma cell line U87): ≤ 50% | effect on the metabolic activity of the #155 cells [1]: very little effect

Cn1nnc2c(C(N)=O)ncn2c1=O [TMZ, temozolomide]
reported plasma peak concentration [3]: 50 µM | reduction of relative metabolic activity ([2]; 50 μM TMZ, mean of four patient-specific primary cultures): 17% | relative metabolic activity, level ([2]; 500 μM TMZ, mean of four patient-specific primary cultures): 63%

C=C1[C@@H](C)[C@H]2[C@H](Cc3ccccc3)NC(=O)[C@]23[C@H](OC(C)=O)/C=C/[C@@](C)(O)C(=O)[C@@H](C)C/C=C/[C@H]3[C@@H]1O [cytochalasin D]
effect on the primary GBM cells' metabolic activity [2]: no significant effect | effect on the metabolic activity of the #155 cells [1]: diminished the metabolic activity of the #155 cells significantly

O=C(Nc1ccc([N+](=O)[O-])cc1Cl)c1cc(Cl)ccc1O [Niclosamide]
inhibition at 1 µM (glioma cell line U87; 1 μM): ≤ 50% | effect on the metabolic activity of the #155 cells [1]: very little effect

COC(=O)[C@]1(C)CC[C@]2(C)CC[C@]3(C)C4=CC=C5C(=CC(=O)C(O)=C5C)[C@]4(C)CC[C@@]3(C)[C@@H]2C1 [Pristimerin]
inhibition at 1 µM (glioma cell line U87): ≤ 50% | cells classified as avital [4]: more than 50% | decrease of frequency of clonogenic, neurosphere-forming cells [5]: 30-60% | time before surviving cells take on proliferative activity [6]: ≥ 10 days | pIC50 [7]: 5.96 | reduction of metabolic activity ([2]; case 023, 1 μM): 90% | reduction of metabolic activity ([2]; case 035, 1 μM): 97% | reduction of metabolic activity ([2]; case 046, 1 μM): 78% | reduction of metabolic activity ([2]; case 106, 1 μM): 97% | pIC50 ([8]; 70 nM to 10 μM, 5 days post application, read-out: median ICM50 (half maximal inhibitory concentration of metabolic activity)): ~6.30 | pIC50 ([8]; Microsource compound, 5 days, read-out: median ICM50): 6.24 | pIC50 ([8]; Sigma compound, 5 days, read-out: median ICM50): 6.37 | initial delay of cell growth (GBM primary cells): ≤ 10 days

CC[C@H]1CN2CCc3cc(OC)c(OC)cc3[C@@H]2C[C@@H]1C[C@H]1NCCc2cc(OC)c(OC)cc21 [emetine]
effect on the metabolic activity of the #155 cells [1]: very little effect

CC[C@]1(O)C[C@H]2CN(CCc3c([nH]c4ccccc34)[C@@](C(=O)OC)(c3cc4c(cc3OC)N(C=O)[C@H]3[C@@](O)(C(=O)OC)[C@H](OC(C)=O)[C@]5(CC)C=CCN6CC[C@]43[C@@H]65)C2)C1 [vincristine sulfate]
effect on the metabolic activity of the #155 cells [1]: very little effect
